#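 Results reflect a 48-hour exposure of cells in 96-well plates to compound at five concentrations. Definition used: TGI = concentration required for complete inhibition of growth.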
# How the values were obtained:
# Test in all cases: inhibition of tumour cell growth, NCI panel, 48 h
# 786-0 renal = test system: 786-0 renal
# A498 renal = test system: A498 renal
# A549 NSCLC = test system: A549 NSCLC
# ACHN renal = test system: ACHN renal
# CAKI-1 renal = test system: CAKI-1 renal
# CCRF-CEM leukemia = test system: CCRF-CEM leukemia
# COLO 205 colon = test system: COLO 205 colon
# DLD-1 colon = test system: DLD-1 colon
# DMS 114 small cell lung = test system: DMS 114 small cell lung
# DMS 273 small cell lung = test system: DMS 273 small cell lung
# HCC-2998 colon = test system: HCC-2998 colon
# HCT-116 colon = test system: HCT-116 colon
# HCT-15 colon = test system: HCT-15 colon
# HL-60(TB) leukemia = test system: HL-60(TB) leukemia
# HOP-18 NSCLC = test system: HOP-18 NSCLC
# HOP-62 NSCLC = test system: HOP-62 NSCLC
# HOP-92 NSCLC = test system: HOP-92 NSCLC
# HT29 colon = test system: HT29 colon
# IGROV1 ovarian = test system: IGROV1 ovarian
# K-562 leukemia = test system: K-562 leukemia
# KM12 colon = test system: KM12 colon
# KM20L2 colon = test system: KM20L2 colon
# LOX IMVI melanoma = test system: LOX IMVI melanoma
# LXFL 529 NSCLC = test system: LXFL 529 NSCLC
# M14 melanoma = test system: M14 melanoma
# M19-MEL melanoma = test system: M19-MEL melanoma
# MALME-3M melanoma = test system: MALME-3M melanoma
# MOLT-4 leukemia = test system: MOLT-4 leukemia
# NCI-H226 lung = test system: NCI-H226 lung
# NCI-H23 lung = test system: NCI-H23 lung
# NCI-H460 lung = test system: NCI-H460 lung
# NCI-H522 lung = test system: NCI-H522 lung
# OVCAR-3 ovarian = test system: OVCAR-3 ovarian
# OVCAR-4 ovarian = test system: OVCAR-4 ovarian
# OVCAR-5 ovarian = test system: OVCAR-5 ovarian
# OVCAR-8 ovarian = test system: OVCAR-8 ovarian
# RPMI-8226 leukemia = test system: RPMI-8226 leukemia
# RXF 393 renal = test system: RXF 393 renal
# RXF-631 renal = test system: RXF-631 renal
# SF-268 CNS = test system: SF-268 CNS
# SF-295 CNS = test system: SF-295 CNS
# SF-539 CNS = test system: SF-539 CNS
# SK-MEL-28 melanoma = test system: SK-MEL-28 melanoma
# SK-MEL-5 melanoma = test system: SK-MEL-5 melanoma
# SK-OV-3 ovarian = test system: SK-OV-3 ovarian
# SN12C renal = test system: SN12C renal
# SNB-19 CNS = test system: SNB-19 CNS
# SNB-75 CNS = test system: SNB-75 CNS
# SNB-78 CNS = test system: SNB-78 CNS
# SR leukemia = test system: SR leukemia
# SW-620 colon = test system: SW-620 colon
# TK-10 renal = test system: TK-10 renal
# U251 CNS = test system: U251 CNS
# UACC-257 melanoma = test system: UACC-257 melanoma
# UACC-62 melanoma = test system: UACC-62 melanoma
# UO-31 renal = test system: UO-31 renal
structure (smiles),measurement,setting,value
COC1(OC)CC2C(=O)N(Cc3ccccc3)C1C(S(=O)(=O)c1ccccc1)C2S(=O)(=O)c1ccccc1 (stereo unspecified),TGI,786-0 renal,30.7 µM
same,TGI,A498 renal,58.2 µM
same,TGI,A549 NSCLC,75 µM
same,TGI,ACHN renal,22.4 µM
same,TGI,CAKI-1 renal,26.9 µM
same,TGI,CCRF-CEM leukemia,13.7 µM
same,TGI,COLO 205 colon,16.9 µM
same,TGI,DLD-1 colon,13.3 µM
same,TGI,DMS 114 small cell lung,16 µM
same,TGI,DMS 273 small cell lung,27.7 µM
same,TGI,HCC-2998 colon,31.1 µM
same,TGI,HCT-116 colon,29.9 µM
same,TGI,HCT-15 colon,14.8 µM
same,TGI,HL-60(TB) leukemia,17.3 µM
same,TGI,HOP-18 NSCLC,31 µM
same,TGI,HOP-62 NSCLC,> 100 µM
same,TGI,HOP-92 NSCLC,34 µM
same,TGI,HT29 colon,28.4 µM
same,TGI,IGROV1 ovarian,32.3 µM
same,TGI,K-562 leukemia,46.2 µM
same,TGI,KM12 colon,34.1 µM
same,TGI,KM20L2 colon,31.4 µM
same,TGI,LOX IMVI melanoma,21.8 µM
same,TGI,LXFL 529 NSCLC,12.1 µM
same,TGI,M14 melanoma,28.5 µM
same,TGI,M19-MEL melanoma,23.8 µM
same,TGI,MALME-3M melanoma,29.3 µM
same,TGI,MOLT-4 leukemia,46.6 µM
same,TGI,NCI-H226 lung,35.2 µM
same,TGI,NCI-H23 lung,28.1 µM
same,TGI,NCI-H460 lung,82.7 µM
same,TGI,NCI-H522 lung,5.12 µM
same,TGI,OVCAR-3 ovarian,22.9 µM
same,TGI,OVCAR-4 ovarian,28.6 µM
same,TGI,OVCAR-5 ovarian,34.1 µM
same,TGI,OVCAR-8 ovarian,23.4 µM
same,TGI,RPMI-8226 leukemia,45.5 µM
same,TGI,RXF 393 renal,25.6 µM
same,TGI,RXF-631 renal,32.6 µM
same,TGI,SF-268 CNS,29.3 µM
same,TGI,SF-295 CNS,> 100 µM
same,TGI,SF-539 CNS,27.3 µM
same,TGI,SK-MEL-28 melanoma,26.8 µM
same,TGI,SK-MEL-5 melanoma,34 µM
same,TGI,SK-OV-3 ovarian,54.2 µM
same,TGI,SN12C renal,25.4 µM
same,TGI,SNB-19 CNS,> 100 µM
same,TGI,SNB-75 CNS,27.6 µM
same,TGI,SNB-78 CNS,39.1 µM
same,TGI,SR leukemia,85.4 µM
same,TGI,SW-620 colon,13.6 µM
same,TGI,TK-10 renal,28.5 µM
same,TGI,U251 CNS,27.2 µM
same,TGI,UACC-257 melanoma,21.1 µM
same,TGI,UACC-62 melanoma,26.2 µM
same,TGI,UO-31 renal,31.3 µM
